Assay results as given in patent publication US11629171B2, “Beta-hairpin peptidomimetics” (POLYPHOR AG, priority 2017, dated 2023).
Values after ≈ are worked out from the molar mass of the structure shown. Where a SMILES comes first, the peptide text is derived from it. Bridges are numbered along the chain shown (N, C = ends). Roman numbers before positions name the chains, in order. [ ]: non-standard residue; d: D form. The star is where a group is joined. Tle = CC(C)(C)[C@H](N)C(=O)O; dOrn = NCCC[C@@H](N)C(=O)O; Hiv = CC(C)[C@H](O)C(=O)O; dDab = NCC[C@@H](N)C(=O)O; hSer = N[C@@H](CCO)C(=O)O; Nle = CCCC[C@H](N)C(=O)O; Orn = NCCC[C@H](N)C(=O)O; Dab = NCC[C@H](N)C(=O)O; Dap = NC[C@H](N)C(=O)O; NHCH2CH2OH = OCCN*

Key:
Type in all cases: cell-based
[1] = tested on: Escherichia coli ATCC 25922; details: ATCC 25922
Summary of the method: (§1)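 Standard CLSI microdilution testing: bacterial suspensions standardized against 0.5 McFarland to about 10^6 CFU/mL in MH-II broth meet serially halved peptide concentrations in broth containing 0.002% polysorbate 80; incubation lasts 18-20 h at 35° C before the MIC is scored.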

[2] = tested on: Klebsiella pneumoniae SSI #3010; details: SSI #3010
Summary of the method: as §1

[3] = tested on: Acinetobacter baumannii 872842; details: 872842
Summary of the method: as §1

[4] = tested on: Pseudomonas aeruginosa ATCC 27853; details: ATCC 27853
Summary of the method: as §1

[5] = tested on: Klebsiella pneumoniae 968733; details: 968733
Summary of the method: as §1

[6] = tested on: Enterobacter cloacae 848840; details: 848840
Summary of the method: as §1

Escherichia coli 926415 = details: 926415
Summary of the method: as §1

[7] = tested on: Acinetobacter baumannii DSM 30008; details: DSM 30008
Summary of the method: as §1

[8] = tested on: human red blood cells (hRBC); assay: Hemolysis; details: red cells of human, 1 h, 200
Summary of the method: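 Washed fresh human RBC (20% v/v) incubated with peptide at 200 μg/mL for 1 h at 37° C with shaking. Supernatant OD540 measured after dilution, blank corrected; percent hemolysis = OD540 peptide / OD540 of 2% Triton X-100 lysis × 100, PBS with 10% water as 0%.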

| MIC [1] | MIC [2] | MIC [3] | MIC [4] | MIC [5] | MIC [6] | MIC (Escherichia coli 926415) | MIC [7] | Escherichia coli ATCC 25922 MIC [1] | Klebsiella pneumoniae SSI #3010 MIC [2] | Pseudomonas aeruginosa ATCC 27853 MIC [4] | Acinetobacter baumannii DSM 30008 MIC [7] | Structure (SMILES) | Hemolysis at 200 μg/mL [8] |
| --- | --- | --- | --- | --- | --- | --- | --- | --- | --- | --- | --- | --- | --- |
| 0.125 µg/mL (≈ 0.0524 µM) | 0.125 µg/mL (≈ 0.0524 µM) | 0.25 µg/mL (≈ 0.105 µM) | 0.125 µg/mL (≈ 0.0524 µM) | 8 µg/mL (≈ 3.35 µM) | 0.25 µg/mL (≈ 0.105 µM) | 1 µg/mL (≈ 0.419 µM) | 0.0625 µg/mL (≈ 0.0262 µM) |  |  |  |  | CC(C)C[C@@H]1NC(=O)[C@@H](CC(C)C)NC(=O)[C@H](CCN)NC(=O)[C@@H](NC(=O)[C@H](CCN)NC(=O)[C@@H](NC(=O)[C@H](CCN)NC(=O)CC[C@@H]2NC(=O)[C@@H](NC(=O)[C@H](Cc3ccc(O)cc3)NC(=O)[C@@H](NC(=O)[C@@H](N)C(C)C)[C@@H](C)O)CSSC[C@@H](C(=O)N[C@H](C(=O)N[C@@H](C)C(=O)N[C@@H](CO)C(=O)O)C(C)(C)C)NC(=O)[C@H](Cc3c[nH]c4ccccc34)NC(=O)[C@H]([C@@H](C)O)NC(=O)[C@@H](CCN)NC2=O)[C@@H](C)O)CCNC(=O)[C@H]([C@@H](C)O)NC(=O)[C@H](CCN)NC(=O)[C@H](CCN)NC1=O [Ex. 186] (I: H-VTYCE[dDab]TWC[Tle]AS-OH / II: [Dab]T[Dab][Dab][Dab][dL]L[Dab][Dab]T; disulfide I:4-I:9; amide I:5-II:N; lactam II:4-II:C) | <1% |
| 0.0625 µg/mL (≈ 0.0268 µM) | 0.125 µg/mL (≈ 0.0536 µM) | 1 µg/mL (≈ 0.428 µM) | 0.25 µg/mL (≈ 0.107 µM) | 8 µg/mL (≈ 3.43 µM) | 0.0625 µg/mL (≈ 0.0268 µM) | 4 µg/mL (≈ 1.71 µM) | 0.125 µg/mL (≈ 0.0536 µM) |  |  |  |  | CC(=O)N[C@H](C(=O)N[C@H]1CCCNC(=O)[C@@H](CCCN)NC(=O)[C@H](C(C)(C)C)NC(=O)[C@H](CO)NC(=O)[C@H](Cc2c[nH]c3ccccc23)NC(=O)[C@H](CCO)NC(=O)[C@@H](CCN)NC(=O)[C@H](CCC(=O)N[C@@H](CCN)C(=O)N[C@H](C(=O)N[C@@H](CN)C(=O)N[C@H]2CCNC(=O)[C@H]([C@@H](C)O)NC(=O)[C@H](CCN)NC(=O)[C@H](CCN)NC(=O)[C@H](CC(C)C)NC(=O)[C@@H](CC(C)C)NC(=O)[C@H](CCN)NC2=O)[C@@H](C)O)NC(=O)[C@H](CO)NC(=O)[C@H](Cc2ccc(O)cc2)NC1=O)C(C)C [Ex. 29] (I: Ac-V[Orn]YSE[dDab][hSer]WS[Tle][dOrn] / II: [Dab]T[Dap][Dab][Dab][dL]L[Dab][Dab]T; lactam I:2-I:C, II:4-II:C; amide I:5-II:N) | 1% |
| 0.125 µg/mL (≈ 0.0537 µM) | 0.125 µg/mL (≈ 0.0537 µM) | 0.25 µg/mL (≈ 0.107 µM) | 0.125 µg/mL (≈ 0.0537 µM) | 0.25 µg/mL (≈ 0.107 µM) | 1 µg/mL (≈ 0.429 µM) | 0.125 µg/mL (≈ 0.0537 µM) | 0.125 µg/mL (≈ 0.0537 µM) |  |  |  |  | CC(C)C[C@@H]1NC(=O)[C@@H](CC(C)C)NC(=O)[C@H](CCN)NC(=O)[C@@H](NC(=O)[C@H](CCN)NC(=O)[C@H](CO)NC(=O)[C@H](CCN)NC(=O)CC[C@@H]2NC(=O)[C@H](CN)NC(=O)[C@H](Cc3ccc(O)cc3)NC(=O)[C@@H](NC(=O)[C@@H](O)C(C)C)CSSC[C@@H](C(=O)NCCO)NC(=O)[C@H](C(C)(C)C)NC(=O)[C@H](CO)NC(=O)[C@H](Cc3c[nH]c4ccccc34)NC(=O)[C@H]([C@@H](C)O)NC(=O)[C@@H](CCN)NC2=O)CCNC(=O)[C@H]([C@@H](C)O)NC(=O)[C@H](CCN)NC(=O)[C@H](CCN)NC1=O [Ex. 59] (I: H-[Hiv]CY[Dap]E[dDab]TWS[Tle]C-NHCH2CH2OH / II: [Dab]S[Dab][Dab][Dab][dL]L[Dab][Dab]T; disulfide I:2-I:11; amide I:5-II:N; lactam II:4-II:C) | <1% |
|  |  | 0.125 µg/mL (≈ 0.052 µM) |  | 0.5 µg/mL (≈ 0.208 µM) | 0.0625 µg/mL (≈ 0.026 µM) | 0.125 µg/mL (≈ 0.052 µM) |  | 0.0625 µg/mL | 0.0625 µg/mL | 0.125 µg/mL | 0.0625 µg/mL | CCCC[C@@H]1NC(=O)[C@H](CO)NC(=O)[C@H](Cc2c[nH]c3ccccc23)NC(=O)[C@H](CO)NC(=O)[C@@H](CCN)NC(=O)[C@H](CCC(=O)N[C@@H](CCN)C(=O)N[C@H](C(=O)N[C@@H](CN)C(=O)N[C@H]2CCNC(=O)[C@H]([C@@H](C)O)NC(=O)[C@H](CCN)NC(=O)[C@H](CCN)NC(=O)[C@H](CC(C)C)NC(=O)[C@@H](CC(C)C)NC(=O)[C@H](CCN)NC2=O)[C@@H](C)O)NC(=O)[C@H](CCN)NC(=O)[C@H](Cc2ccc(O)cc2)NC(=O)[C@@H](NC(=O)[C@@H](NC(C)=O)C(C)C)CCNC(=O)C[C@@H](C(=O)N[C@@H](CO)C(N)=O)NC1=O [Ex. 325] (I: Ac-V[Dab]Y[Dab]E[dDab]SWS[Nle]DS-NH2 / II: [Dab]T[Dap][Dab][Dab][dL]L[Dab][Dab]T; lactam I:2-I:11, II:4-II:C; amide I:5-II:N) | <1% |
